Assay results taken from US4971965A, “Antibiotics TAN-1057” (Takeda Chemical Industries, Ltd., priority 1988, dated 1990).
Converted amounts (≈) assume the structure as drawn. Where two headings read alike, the source gives them in different places.

Assays:
Assay type in all cases: cell-based
[1] = system: Peptostreptococcus anaerobium B-40; experiment: MIC against anaerobic bacteria (Table 3); conditions: B40, 10^6 CFU/ml, GAM medium, Gas Pack, 37° C., 18 hours
[2] = system: Clostridium perfringens PB6K; experiment: microbe, parasite or virus in culture; conditions: 18 h
[3] = system: Bacteroides thermophilis PNA-1-24; experiment: MIC against anaerobic bacteria (Table 3); conditions: PNA124, 10^6 CFU/ml, GAM medium, Gas Pack, 37° C., 18 hours
[4] = system: Mycoplasma garisepticum S6; experiment: MIC against Mycoplasma (Table 3); conditions: S6, 120 h, 10^6 CFU/ml, Hayflick medium, 37° C., 5 days
Description: | Inoculum size: 10^6 CFU/ml

Bacillus cereus FDA 5 = experiment: Antibacterial activity (broth dilution MIC, Table 1)
Method: (§1) The biological activities of TAN-1057 are described as follows.
(§2) (Note 1) Measurement was conducted by employing a medium consisting of
(§3) Bacto Antibiotic Medium 3 (Difco Laboratories, USA)(17.5 g), Bacto yeast
(§4) extract(Difco Laboratories, USA)(5.0 g) and distilled water(pH
(§5) […])(1000 ml), using approximately 10^5 colony forming unit/ml
(§6) of inoculum, by means of the broth dilution method.

[5] = system: Bacillus megaterium IFO 12108; experiment: as above; conditions: Priestia megaterium
Method: as §1, §2, §3, §4, §5, §6

[6] = system: Staphylococcus epidermidis IFO 3762; experiment: as above
Method: as §1, §2, §3, §4, §5, §6

[7] = system: Micrococcus luteus IFO 12708; experiment: as above
Method: as §1, §2, §3, §4, §5, §6

[8] = system: Bacillus subtilis NIHJ PCI 219; experiment: as above
Method: as §1, §2, §3, §4, §5, §6

[9] = system: Klebsiella pnemoniae IFO 3317; experiment: as above
Method: as §1, §2, §3, §4, §5, §6

Escherichia coli LD-2 = experiment: as above
Method: as §1, §2, §3, §4, §5, §6

[10] = system: Pseudomonas aeruginosa IFO 3080; experiment: as above
Method: as §1, §2, §3, §4, §5, §6

[11] = system: Salmonella typhimurium IFO 12529; experiment: as above; conditions: Salmonella enterica
Method: as §1, §2, §3, §4, §5, §6

[12] = system: Acinetobacter calcoaceticus IFO 12552; experiment: as above
Method: as §1, §2, §3, §4, §5, §6

[13] = system: Pseudomonas aeruginosa PAO-8; experiment: as above
Method: as §1, §2, §3, §4, §5, §6

Aeromonas caviae NCW = experiment: as above
Method: as §1, §2, §3, §4, §5, §6

[14] = system: Streptococcus faecalis IFO 3989; experiment: as above; conditions: Enterococcus faecalis
Method: as §1, §2, §3, §4, §5, §6

[15] = system: Staphylococcus aureus FDA 209P; experiment: as above; conditions: FDA209P
Method: as §1, §2, §3, §4, §5, §6

[16] = system: Proteus vulgaris IFO 3988; experiment: as above
Method: as §1, §2, §3, §4, §5, §6

[17] = system: Acinetobacter calcoaceticus IFO 13006; experiment: as above
Method: as §1, §2, §3, §4, §5, §6

[18] = system: Escherichia coli NIHJ JC 2; experiment: as above
Method: as §1, §2, §3, §4, §5, §6

[19] = system: Staphylococcus aureus TST-75; experiment: Antibacterial activity against clinically isolated S. aureus (agar dilution MIC, Table 2); conditions: Staphylococcus aureus, TST75; strain TST-75; agar dilution; Mueller Hinton medium; 10^6 CFU/ml; read-out: MIC
Method: (§7) DMPPC: Methicillin, KM: Kanamycin, GM: Gentamycin, EM: Erythromycin (Note
(§8) Determined by the agar dilution method. Medium: Mueller Hinton medium
(§9) (Difco, USA) Inoculum Size: 10^6 CFU/ml, 37° C.

[20] = system: Staphylococcus aureus N129; experiment: as above; conditions: Staphylococcus aureus; strain N129; agar dilution; Mueller Hinton medium; 10^6 CFU/ml; read-out: MIC
Method: as §7, §8, §9

[21] = system: Staphylococcus aureus N176-3; experiment: as above; conditions: Staphylococcus aureus, N1763; strain N176-3; agar dilution; Mueller Hinton medium; 10^6 CFU/ml; read-out: MIC
Method: as §7, §8, §9

[22] = system: Staphylococcus aureus FDA 209P; experiment: as above; conditions: Staphylococcus aureus, FDA209P; strain FDA 209P; agar dilution; Mueller Hinton medium; 10^6 CFU/ml; read-out: MIC
Method: as §7, §8, §9

[23] = pH 5, broth dilution, read-out: Minimum Inhibitory Conc. (MIC)
[24] = pH 7, read-out: Minimum Inhibitory Conc. (MIC)
[25] = pH 9, broth dilution, read-out: Minimum Inhibitory Conc. (MIC)

Structure (SMILES): CN(C(=O)C[C@@H](N)CCCNC(=N)N)[C@H]1CNC(NC(N)=O)=NC1=O [TAN-1057A]
- MIC [1]: 25 µg/mL (≈ 70.3 µM)
- MIC [2]: 12.5 µg/mL (≈ 35.2 µM)
- MIC [3]: 0.78 µg/mL (≈ 2.19 µM)
- MIC [4]: 3.13 µg/mL (≈ 8.81 µM)
- MIC (Bacillus cereus FDA 5; FDA5, pH 5, read-out: Minimum Inhibitory Conc. (MIC)): 6.25 µg/mL (≈ 17.6 µM)
- MIC (Bacillus cereus FDA 5; FDA5, pH 7, broth dilution, read-out: Minimum Inhibitory Conc. (MIC)): 25 µg/mL (≈ 70.3 µM)
- MIC (Bacillus cereus FDA 5; FDA5, pH 9, read-out: Minimum Inhibitory Conc. (MIC)): 3.13 µg/mL (≈ 8.81 µM)
- MIC ([5]; IFO12108, pH 7, read-out: Minimum Inhibitory Conc. (MIC)): 12.5 µg/mL (≈ 35.2 µM)
- MIC ([5]; IFO12108, pH 5, broth dilution, read-out: Minimum Inhibitory Conc. (MIC)): 25 µg/mL (≈ 70.3 µM)
- MIC ([5]; IFO12108, pH 9, broth dilution, read-out: Minimum Inhibitory Conc. (MIC)): 1.56 µg/mL (≈ 4.39 µM)
- MIC ([6]; IFO3762, pH 5, read-out: Minimum Inhibitory Conc. (MIC)): > 100 µg/mL
- MIC ([6]; IFO3762, pH 7, read-out: Minimum Inhibitory Conc. (MIC)): 1.56 µg/mL (≈ 4.39 µM)
- MIC ([6]; IFO3762, pH 9, read-out: Minimum Inhibitory Conc. (MIC)): < 0.1 µg/mL
- MIC ([7]; IFO12708, pH 7, read-out: Minimum Inhibitory Conc. (MIC)): 1.56 µg/mL (≈ 4.39 µM)
- MIC ([7]; IFO12708, pH 9, read-out: Minimum Inhibitory Conc. (MIC)): 0.2 µg/mL (≈ 0.563 µM)
- MIC [8, 23]: 50 µg/mL (≈ 141 µM)
- MIC [8, 24]: 12.5 µg/mL (≈ 35.2 µM)
- MIC [8, 25]: 1.56 µg/mL (≈ 4.39 µM)
- MIC ([9]; IFO3317, pH 5, read-out: Minimum Inhibitory Conc. (MIC)): > 100 µg/mL
- MIC ([9]; IFO3317, pH 7, read-out: Minimum Inhibitory Conc. (MIC)): > 100 µg/mL
- MIC ([9]; IFO3317, pH 9, read-out: Minimum Inhibitory Conc. (MIC)): 100 µg/mL (≈ 281 µM)
- MIC (Escherichia coli LD-2; LD2, pH 5, read-out: Minimum Inhibitory Conc. (MIC)): 100 µg/mL (≈ 281 µM)
- MIC (Escherichia coli LD-2; LD2, pH 7, read-out: Minimum Inhibitory Conc. (MIC)): 25 µg/mL (≈ 70.3 µM)
- MIC (Escherichia coli LD-2; LD2, pH 9, read-out: Minimum Inhibitory Conc. (MIC)): 1.56 µg/mL (≈ 4.39 µM)
- MIC ([10]; IFO3080, pH 5, read-out: Minimum Inhibitory Conc. (MIC)): > 100 µg/mL
- MIC ([10]; IFO3080, pH 7, read-out: Minimum Inhibitory Conc. (MIC)): > 100 µg/mL
- MIC ([10]; IFO3080, pH 9, read-out: Minimum Inhibitory Conc. (MIC)): 100 µg/mL (≈ 281 µM)
- MIC ([11]; pH 5, read-out: Minimum Inhibitory Conc. (MIC)): > 100 µg/mL
- MIC [11, 24]: > 100 µg/mL
- MIC ([11]; pH 9, read-out: Minimum Inhibitory Conc. (MIC)): 25 µg/mL (≈ 70.3 µM)
- MIC ([12]; IFO12552, pH 5, read-out: Minimum Inhibitory Conc. (MIC)): 12.5 µg/mL (≈ 35.2 µM)
- MIC ([12]; IFO12552, pH 7, read-out: Minimum Inhibitory Conc. (MIC)): 6.25 µg/mL (≈ 17.6 µM)
- MIC ([12]; IFO12552, pH 9, broth dilution, read-out: Minimum Inhibitory Conc. (MIC)): 1.56 µg/mL (≈ 4.39 µM)
- MIC ([13]; PAO8, pH 5, read-out: Minimum Inhibitory Conc. (MIC)): 100 µg/mL (≈ 281 µM)
- MIC ([13]; PAO8, pH 7, read-out: Minimum Inhibitory Conc. (MIC)): > 100 µg/mL
- MIC ([13]; PAO8, pH 9, read-out: Minimum Inhibitory Conc. (MIC)): 100 µg/mL (≈ 281 µM)
- MIC (Aeromonas caviae NCW; [23]): 100 µg/mL (≈ 281 µM)
- MIC (Aeromonas caviae NCW; [24]): 6.25 µg/mL (≈ 17.6 µM)
- MIC (Aeromonas caviae NCW; [25]): 1.56 µg/mL (≈ 4.39 µM)
- MIC ([14]; IFO3989, pH 7, read-out: Minimum Inhibitory Conc. (MIC)): 12.5 µg/mL (≈ 35.2 µM)
- MIC ([14]; IFO3989, pH 9, read-out: Minimum Inhibitory Conc. (MIC)): 3.13 µg/mL (≈ 8.81 µM)
- MIC ([14]; IFO3989, pH 5, broth dilution, read-out: Minimum Inhibitory Conc. (MIC)): > 100 µg/mL
- MIC [15, 24]: 3.13 µg/mL (≈ 8.81 µM)
- MIC [15, 25]: < 0.1 µg/mL
- MIC ([16]; IFO3988, pH 5, read-out: Minimum Inhibitory Conc. (MIC)): > 100 µg/mL
- MIC ([16]; IFO3988, pH 7, read-out: Minimum Inhibitory Conc. (MIC)): > 100 µg/mL
- MIC ([16]; IFO3988, pH 9, read-out: Minimum Inhibitory Conc. (MIC)): 50 µg/mL (≈ 141 µM)
- MIC ([17]; IFO13006, pH 5, broth dilution, read-out: Minimum Inhibitory Conc. (MIC)): 1.56 µg/mL (≈ 4.39 µM)
- MIC ([17]; IFO13006, pH 7, read-out: Minimum Inhibitory Conc. (MIC)): 6.25 µg/mL (≈ 17.6 µM)
- MIC ([17]; IFO13006, pH 9, broth dilution, read-out: Minimum Inhibitory Conc. (MIC)): 1.56 µg/mL (≈ 4.39 µM)
- MIC ([18]; NIHJJC2, pH 5, read-out: Minimum Inhibitory Conc. (MIC)): > 100 µg/mL
- MIC ([18]; NIHJJC2, pH 7, read-out: Minimum Inhibitory Conc. (MIC)): > 100 µg/mL
- MIC ([18]; NIHJJC2, pH 9, read-out: Minimum Inhibitory Conc. (MIC)): 25 µg/mL (≈ 70.3 µM)
- MIC [19]: 0.78 µg/mL (≈ 2.19 µM)
- MIC [20]: 0.39 µg/mL (≈ 1.1 µM)
- MIC [21]: 1.56 µg/mL (≈ 4.39 µM)
- MIC [22]: 0.39 µg/mL (≈ 1.1 µM)
